Reference: US11149018B2, “Substituted N-arylethyl-2-aminoquinoline-4-carboxamides and use thereof” (Bayer Aktiengesellschaft, priority 2017, dated 2021)

Target: FP receptor (Homo sapiens (Human), UniProt P43088)
Test: In vitro test of inhibition of human FP receptor activity (PGF2α-induced calcium flux in FP-expressing CHEM1 cells)
Format: cell-based
Settings: PGF2α 2 nM, some mean values of multiple determinations
Method in brief: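 FP antagonism in FP-expressing CHEM1 cells loaded with Fluo-8. Compound preincubated 10 min at 37° C, then receptor stimulated with 2 nM (final) PGF2α in calcium-free Tyrode with 2 mM CaCl2.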

Chain of FP receptor (P43088 whole entry): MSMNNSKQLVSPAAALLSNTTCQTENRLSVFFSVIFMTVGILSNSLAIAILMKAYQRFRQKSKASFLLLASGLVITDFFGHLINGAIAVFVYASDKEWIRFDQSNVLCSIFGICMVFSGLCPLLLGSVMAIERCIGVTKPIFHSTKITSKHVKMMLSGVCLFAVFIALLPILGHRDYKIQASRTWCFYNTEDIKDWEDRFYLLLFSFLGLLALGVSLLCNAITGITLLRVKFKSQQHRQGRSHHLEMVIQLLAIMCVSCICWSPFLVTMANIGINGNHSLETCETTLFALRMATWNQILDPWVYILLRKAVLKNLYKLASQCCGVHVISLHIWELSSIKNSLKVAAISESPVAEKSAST

SMILES	IC50
Cc1ccccc1C(CCC(=O)O)CNC(=O)c1c(C)c(N2CCCC2)nc2ccc(Br)cc12 (single isomer, unassigned; (-)) [Example 234, (−)-5-({[6-Bromo-3-methyl-2-(pyrrolidin-1-yl)quinolin-4-yl]carbonyl}amino)-4-(2-methylphenyl)pentanoic acid]	8.9 nM
COc1ccccc1C(CCC(=O)O)CNC(=O)c1c(C)c(N2CCCCC2)nc2ccc(Br)cc12 (single isomer, unassigned; (-)) [Example 236, (−)-5-({[6-Bromo-3-methyl-2-(piperidin-1-yl)quinolin-4-yl]carbonyl}amino)-4-(2-methoxyphenyl)pentanoic acid]	11 nM
COc1ccccc1C(CCC(=O)O)CNC(=O)c1c(C)c(N2CCCC2)nc2ccc(Br)cc12 (single isomer, unassigned; (-)) [Example 238, (−)-5-({[6-Bromo-3-methyl-2-(pyrrolidin-1-yl)quinolin-4-yl]carbonyl}amino)-4-(2-methoxyphenyl)pentanoic acid]	44 nM
COc1ccccc1C(CCC(=O)O)CNC(=O)c1c(C)c(N2CCCCCC2)nc2ccc(Br)cc12 (single isomer, unassigned; (-)) [Example 240, (−)-5-({[2-(Azepan-1-yl)-6-bromo-3-methylquinolin-4-yl]carbonyl}amino)-4-(2-methoxyphenyl)pentanoic acid]	16 nM
Cc1c(N2CCCC2)nc2ccc(Br)cc2c1C(=O)NCC(CCC(=O)O)c1c(F)cccc1F (single isomer, unassigned; (-)) [Example 249, (−)-5-({[6-Bromo-3-methyl-2-(pyrrolidin-1-yl)quinolin-4-yl]carbonyl}amino)-4-(2,6-difluorophenyl)pentanoic acid]	9.4 nM
Cc1c(N2CCCC(F)(F)C2)nc2ccc(Br)cc2c1C(=O)NCC(CCC(=O)O)c1c(F)cccc1F (single isomer, unassigned; (-)) [Example 252, (−)-5-({[6-Bromo-2-(3,3-difluoropiperidin-1-yl)-3-methylquinolin-4-yl]carbonyl}amino)-4-(2,6-difluorophenyl)pentanoic acid]	9.4 nM
Cc1c(N2CCCC2)nc2ccc(Br)cc2c1C(=O)NCC(CCC(=O)O)c1cc(F)ccc1F (single isomer, unassigned; (-)) [Example 260, (−)-5-({[6-Bromo-3-methyl-2-(pyrrolidin-1-yl)quinolin-4-yl]carbonyl}amino)-4-(2,5-difluorophenyl)pentanoic acid]	29 nM
[2H]C1([2H])N(c2nc3ccc(Br)cc3c(C(=O)NCC(CCC(=O)O)c3ccccc3C(F)(F)F)c2C)C([2H])([2H])C([2H])([2H])C([2H])([2H])C1([2H])[2H] (single isomer, unassigned; (-)) [Example 269, (−)-5-[({6-Bromo-3-methyl-2-[(^2H10)piperidin-1-yl]quinolin-4-yl}carbonyl)amino]-4-[2-(trifluoromethyl)phenyl]pentanoic acid]	2.8 nM
[2H]C1([2H])N(c2nc3ccc(Br)cc3c(C(=O)NCC(CCC(=O)O)c3ccccc3C(F)(F)F)c2C)C([2H])([2H])C([2H])([2H])C1([2H])[2H] (single isomer, unassigned; (-)) [Example 277, (−)-5-[({6-Bromo-3-methyl-2-[(^2H8)pyrrolidin-1-yl]quinolin-4-yl}carbonyl)amino]-4-[2-(trifluoromethyl)phenyl]pentanoic acid]	34 nM
Cc1c(N2CCCC2)nc2ccc(Br)cc2c1C(=O)NCC(CCC(=O)O)c1ccccc1C(F)(F)F (single isomer, unassigned; (-)) [Example 280, (−)-5-[({6-Bromo-3-methyl-2-[(^2H8)pyrrolidin-1-yl]quinolin-4-yl}carbonyl)amino]-4-[2-(trifluoromethyl)phenyl]pentanoic acid]	2.4 nM
COC1CCCN(c2nc3ccc(Br)cc3c(C(=O)NCC(CCC(=O)O)c3cc(F)ccc3Cl)c2C)C1 (stereo not drawn) [Example 19, 5-[({6-Bromo-2-[3-methoxypiperidin-1-yl]-3-methylquinolin-4-yl}carbonyl)amino]-4-(2-chloro-5-fluorophenyl)pentanoic acid]	130 nM
Cc1c(N2CCC(C)C2)nc2ccc(Br)cc2c1C(=O)NCC(CCC(=O)O)c1ccccc1Cl (stereo not drawn) [Example 36, 5-[({6-Bromo-3-methyl-2-[3-methylpyrrolidin-1-yl]quinolin-4-yl}carbonyl)amino]-4-(2-chlorophenyl)pentanoic acid]	22 nM
COC1CCN(c2nc3ccc(Br)cc3c(C(=O)NCC(CCC(=O)O)c3ccccc3Cl)c2C)C1 (stereo not drawn) [Example 41, 5-[({6-Bromo-2-[3-methoxypyrrolidin-1-yl]-3-methylquinolin-4-yl}carbonyl)amino]-4-(2-chlorophenyl)pentanoic acid]	430 nM

The remaining lines, values ahead:

IC50	SMILES
8.4 nM	Cc1c(N2CCCCC2)nc2ccc(Br)cc2c1C(=O)NCC(CCC(=O)O)c1cc(F)ccc1F (single isomer, unassigned; (-)) [Example 256, (−)-5-({[6-Bromo-3-methyl-2-(piperidin-1-yl)quinolin-4-yl]carbonyl}amino)-4-(2,5-difluorophenyl)pentanoic acid]
18 nM	Cc1c(N2CCCC(F)(F)C2)nc2ccc(Br)cc2c1C(=O)NCC(CCC(=O)O)c1cc(F)ccc1F (single isomer, unassigned; (-)) [Example 262, (−)-5-({[6-Bromo-2-(3,3-difluoropiperidin-1-yl)-3-methylquinolin-4-yl]carbonyl}amino)-4-(2,5-difluorophenyl)pentanoic acid]
13 nM	Cc1c(N2CCCC(F)(F)C2)nc2ccc(Br)cc2c1C(=O)NCC(CCC(=O)O)c1c(Cl)cccc1Cl (single isomer, unassigned; (-)) [Example 265, (−)-5-({[6-Bromo-2-(3,3-difluoropiperidin-1-yl)-3-methylquinolin-4-yl]carbonyl}amino)-4-(2,6-dichlorophenyl)pentanoic acid]
290 nM	Cc1c(N2CCC(O)C2)nc2ccc(Br)cc2c1C(=O)NCC(CCC(=O)O)c1cc(F)ccc1Cl (stereo not drawn) [Example 16, 5-[({6-Bromo-2-[3-hydroxypyrrolidin-1-yl]-3-methylquinolin-4-yl}carbonyl)amino]-4-(2-chloro-5-fluorophenyl)pentanoic acid]
4.1 nM	Cc1c(N2CCCC(C)C2)nc2ccc(Br)cc2c1C(=O)NCC(CCC(=O)O)c1cc(F)ccc1Cl (stereo not drawn) [Example 17, 5-[({6-Bromo-3-methyl-2-[3-methylpiperidin-1-yl]quinolin-4-yl}carbonyl)amino]-4-(2-chloro-5-fluorophenyl)pentanoic acid]
490 nM	Cc1c(N2CCOC(CO)C2)nc2ccc(Br)cc2c1C(=O)NCC(CCC(=O)O)c1cc(F)ccc1Cl (stereo not drawn) [Example 20, 5-[({6-Bromo-2-[2-(hydroxymethyl)morpholin-4-yl]-3-methylquinolin-4-yl}carbonyl)amino]-4-(2-chloro-5-fluorophenyl)pentanoic acid]
230 nM	Cc1c(N2CCCC(CO)C2)nc2ccc(Br)cc2c1C(=O)NCC(CCC(=O)O)c1cc(F)ccc1Cl (stereo not drawn) [Example 21, 5-[({6-Bromo-2-[3-(hydroxymethyl)piperidin-1-yl]-3-methylquinolin-4-yl}carbonyl)amino]-4-(2-chloro-5-fluorophenyl)pentanoic acid]
4.7 nM	Cc1c(N2CCCC(C)C2)nc2ccc(Br)cc2c1C(=O)NCC(CCC(=O)O)c1ccccc1Cl (stereo not drawn) [Example 45, 5-[({6-Bromo-3-methyl-2-[3-methylpiperidin-1-yl]quinolin-4-yl}carbonyl)amino]-4-(2-chlorophenyl)pentanoic acid]
